Changes are numbered by the printed parent chain. pIC50: −log10 of the molar value. Where two headings read alike, the source gives them in different places.
Tests used:
[1] = target: T1, DP402 DP (α1*0101, α1*0402) (Homo sapiens, UniProt P04440+P20036, A65V/A84D/A85E/L207M); experiment: biochemical; format: binding
T1 sequence (P20036 29-260): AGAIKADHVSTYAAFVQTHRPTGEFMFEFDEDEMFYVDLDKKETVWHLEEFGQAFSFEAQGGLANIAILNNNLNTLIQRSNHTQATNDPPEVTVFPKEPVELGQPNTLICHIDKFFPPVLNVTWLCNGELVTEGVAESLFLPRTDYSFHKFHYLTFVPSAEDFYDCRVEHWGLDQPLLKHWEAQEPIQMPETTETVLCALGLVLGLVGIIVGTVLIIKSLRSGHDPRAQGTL
T1 sequence (P04440 30-258 A65V/A84D/A85E): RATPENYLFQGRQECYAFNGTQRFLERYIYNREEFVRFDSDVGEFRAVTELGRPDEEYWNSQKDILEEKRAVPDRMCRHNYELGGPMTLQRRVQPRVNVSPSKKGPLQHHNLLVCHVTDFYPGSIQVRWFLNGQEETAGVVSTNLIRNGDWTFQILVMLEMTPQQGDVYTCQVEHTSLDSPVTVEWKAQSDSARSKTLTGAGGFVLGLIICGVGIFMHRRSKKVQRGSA

[2] = target: T2, DRB3=HLA-DR(α1*0101,α3*0101) (Homo sapiens, UniProt P01903+P79483); experiment: HLA-DR specific binding assay, DRB3 (DR52)
T2 construct: endogenous in cells; host or cells: STEILIN or 0206AD (both typed DRB3*0101)
T2 sequence (P79483 30-266, other chains not shown): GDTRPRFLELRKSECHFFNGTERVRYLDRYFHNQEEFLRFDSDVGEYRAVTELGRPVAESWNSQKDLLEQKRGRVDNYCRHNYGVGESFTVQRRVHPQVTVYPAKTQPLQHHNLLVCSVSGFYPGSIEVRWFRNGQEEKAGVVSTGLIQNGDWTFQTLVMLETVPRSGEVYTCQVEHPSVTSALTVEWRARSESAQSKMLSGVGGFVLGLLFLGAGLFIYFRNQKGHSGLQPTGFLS

[3] = target: T3, DRB5=HLA-DR(α1*0101,α5*0101) (Homo sapiens, UniProt P01903+Q30154); experiment: biochemical; format: binding; settings: Table V; […]; read-out: IC50 DRB5
T3 construct: endogenous in cells; host or cells: EBV homozygous human B cell line
T3 sequence (Q30154 30-266, other chains not shown): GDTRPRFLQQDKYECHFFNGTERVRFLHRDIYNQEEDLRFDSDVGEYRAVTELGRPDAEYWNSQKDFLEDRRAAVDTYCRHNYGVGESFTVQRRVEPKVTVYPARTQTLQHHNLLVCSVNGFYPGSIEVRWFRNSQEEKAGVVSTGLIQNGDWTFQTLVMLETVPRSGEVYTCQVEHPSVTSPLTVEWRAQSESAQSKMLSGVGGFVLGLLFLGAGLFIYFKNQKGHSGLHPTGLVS

[4] = target: T4, DR13=HLA-DR(α1*0101,α1*1301) (Homo sapiens, UniProt P01903+P01911, A100E/A169T/K41T/L162R/M171V/P40S/Q125H/Q178H/Q39Y/Q99D/R42S/S66N/T262R/W38E/Y61H); experiment: HLA-DR specific binding assay, DR13
T4 construct: endogenous in cells; host or cells: 0206AD (EBV homozygous B cell line)

[5] = target: T5, DR7=HLA-DR(α1*0101,α1*0701) (Homo sapiens, UniProt P01903+P01911, A100R/A102G/A103Q/D57E/D86V/E43K/F76Y/K127E/L162R/M171V/P40G/Q125H/Q99D/R33Q/R42Y/R54Q/S133A/S66F/T210M/V115G/Y107V/Y59L/Y89S); experiment: HLA-DR specific binding assay, DR7
T5 construct: endogenous in cells; host or cells: EBV homozygous human B cell line

[6] = target: T6, DR15=HLA-DR(α1*0101,α1*1501) (Homo sapiens, UniProt P01903+P01911); experiment: HLA-DR specific binding assay, DR15
T6 construct: endogenous in cells; host or cells: EBV homozygous human B cell line

[7] = target: T7, DR3=HLA-DR(α1*0101,α1*0301) (Homo sapiens, UniProt P01903+P01911, A100K/A102G/A103R/A169T/F55Y/I96L/K41T/L162R/M171V/P40S/Q125H/Q178H/Q39Y/R42S/S66N/T106N/T262R/W38E/Y61H); experiment: HLA-DR specific binding assay, DR3
T7 construct: endogenous in cells; host or cells: STEILIN (EBV homozygous B cell line)

[8] = target: T8, DR4=HLA-DR(α1*0101,α1*0401) (Homo sapiens, UniProt P01903+P01911, A100K/A169T/F76Y/I96L/K127E/L162R/M171V/N62H/P40V/Q125Y/R42H/S133A/S149N/S66Y/V115G/V209L/W38E); experiment: biochemical; format: binding
T8 construct: endogenous in cells; host or cells: BOLETH (EBV homozygous B cell line)

[9] = target: T9, DRB4=HLA-DR(α1*0101,α4*0101) (Homo sapiens, UniProt P01903+P13762, G164S); experiment: HLA-DR specific binding assay, DRB4 (DR53)
T9 construct: endogenous in cells

[10] = target: T10, DR1=HLA-DR(α1*0101,α1*0101) (Homo sapiens, UniProt P01903+P01911, A100R/D57E/F55L/F60I/F76Y/I96L/L162R/M171V/P40L/Q125E/R42F/V115G/Y59C); experiment: biochemical; format: binding; settings: […]
T10 construct: endogenous in cells; host or cells: EBV homozygous human B cell line

[11] = target: T11, DP401=HLA-DP(α1*0101,α1*0401) (Homo sapiens, UniProt P04440+P20036); experiment: biochemical; format: binding
T11 sequence (P20036 32-260 limits assumed): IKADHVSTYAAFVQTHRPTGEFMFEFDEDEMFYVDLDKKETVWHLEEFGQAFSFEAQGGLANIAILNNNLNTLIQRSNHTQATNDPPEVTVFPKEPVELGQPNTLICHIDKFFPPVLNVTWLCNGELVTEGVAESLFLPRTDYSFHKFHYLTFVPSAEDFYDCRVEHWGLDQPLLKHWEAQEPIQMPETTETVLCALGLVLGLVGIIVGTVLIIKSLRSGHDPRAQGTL
T11 sequence (P04440 30-258): T1 sequence (P04440 30-258 A65V/A84D/A85E) with V36A, D55A, E56A

[12] = tested on: HLA-DR and HLA-DP molecules; experiment: MHC class II binding assays, panel of twelve HLA class II molecules (number of alleles bound); settings: number of the twelve class II MHC alleles bound; title: Threshold 600 nM/5 alleles
[13] = target: T12, DR11=HLA-DR(α1*0101,α1*1101) (Homo sapiens, UniProt P01903+P01911, A100R/A169T/A87E/I96F/K41T/L162R/M171V/P40S/Q125H/Q178H/Q39Y/Q99D/R42S/S66Y/T262R/V115G/W38E); experiment: biochemical; format: binding
T12 construct: endogenous in cells; host or cells: SWEIG (EBV homozygous B cell line)

[14] = IC50, DRD3, Class II MHC allele DRD3 (so in the source)
[15] = IC50, DR3, Class II MHC allele DR3
[16] = Class II MHC allele DR4, read-out: IC50, DR4
[17] = Table V, […], read-out: IC50 DR4
[18] = Class II MHC allele DR1, read-out: IC50, DR1
[19] = Class II MHC allele DR11, read-out: IC50, DR11
[20] = Table V, […], read-out: IC50 DR11

| Structure (SMILES) | pIC50 ([1]; Class II MHC allele DP402) | pIC50 ([1]; Table V, […]) | pIC50 [2, 14] | pIC50 ([2]; IC50 DRB3, Table V, […]) | pIC50 [3] | pIC50 [4] | pIC50 [5] | pIC50 [6] | pIC50 [7, 15] | pIC50 ([7]; IC50 DR3, Table V, […]) | pIC50 [8, 16] | pIC50 [8, 17] | pIC50 [9] | pIC50 ([10]; Table V, read-out: IC50 DR1) | pIC50 [10, 18] | pIC50 ([11]; Class II MHC allele DP401) | pIC50 ([11]; Table V, […]) | Range [12] | pIC50 [13, 19] | pIC50 [13, 20] | further results |
| --- | --- | --- | --- | --- | --- | --- | --- | --- | --- | --- | --- | --- | --- | --- | --- | --- | --- | --- | --- | --- | --- |
| CC[C@H](C)[C@H](NC(=O)[C@H](CCSC)NC(=O)[C@H](CCC(=O)O)NC(=O)[C@H](CCCNC(=N)N)NC(=O)[C@H](C)NC(=O)[C@H](CCC(=O)O)NC(=O)[C@H](C)NC(=O)[C@H](CC(C)C)NC(=O)[C@@H](N)CCCCN)C(=O)N[C@@H](CCCNC(=N)N)C(=O)N[C@@H](Cc1ccc(O)cc1)C(=O)N[C@@H](CCSC)C(=O)N[C@@H](C)C(=O)N[C@@H](CC(C)C)C(=O)N[C@H](C(=O)N[C@@H](CO)C(=O)N[C@@H](C)C(=O)N[C@@H](CCSC)C(=O)N[C@@H](CCC(=O)O)C(=O)N[C@@H](CCCNC(=N)N)C(=O)N[C@H](C(=O)N[C@@H](CCC(=O)O)C(=O)N[C@@H](Cc1c[nH]cn1)C(=O)N[C@@H](CCCCN)C(=O)N[C@@H](C)C(=O)N[C@@H](CCCCN)C(=O)N[C@@H](CCCCN)C(=O)N[C@@H](CCCCN)C(=O)NCC(=O)N[C@H](C(=O)N[C@@H](CO)C(=O)N[C@@H](C)C(=O)O)[C@@H](C)O)[C@@H](C)O)C(C)C [HSV 1] | 6.62 | 6.62 | < 4.00 | < 4.00 | 8.22 | 6.55 | 6.53 | 8.52 | 6.00 | 6.00 | 7.43 | 7.43 | 7.37 | 8.22 | 8.22 | 5.79 | 5.79 | 10 | 7.89 | 7.89 | – |
| CSCC[C@H](NC(=O)[C@@H](NC(=O)[C@H](Cc1ccc(O)cc1)NC(=O)[C@H](CCCNC(=N)N)NC(=O)[C@@H](N)Cc1ccccc1)C(C)C)C(=O)N[C@@H](CCCNC(=N)N)C(=O)N[C@@H](CC(C)C)C(=O)N[C@@H](CCC(N)=O)C(=O)N[C@@H](CO)C(=O)N[C@@H](CC(N)=O)C(=O)N1CCC[C@H]1C(=O)N[C@@H](CCSC)C(=O)N[C@@H](CCCCN)C(=O)N[C@@H](C)C(=O)N[C@@H](CC(C)C)C(=O)N[C@@H](Cc1ccc(O)cc1)C(=O)N1CCC[C@H]1C(=O)N[C@@H](CC(C)C)C(=O)N[C@H](C(=O)N[C@H](C(=O)N[C@@H](CCCCN)C(=O)N[C@@H](CCC(=O)O)C(=O)N[C@@H](CC(C)C)C(=O)N[C@@H](CCCCN)C(=O)N[C@@H](CC(N)=O)C(=O)N1CCC[C@H]1C(=O)N[C@H](C(=O)N[C@@H](CC(N)=O)C(=O)N1CCC[C@H]1C(=O)N[C@@H](CC(=O)O)C(=O)N[C@@H](C)C(=O)N[C@@H](CO)C(=O)NCC(=O)N[C@@H](CCC(=O)O)C(=O)NCC(=O)O)[C@@H](C)O)[C@@H](C)O)[C@@H](C)O [HSV 8] | 7.49 | 7.49 | 4.26 | 4.26 | 8.70 | 6.50 | 7.70 | 8.52 | 5.32 | 5.32 | 7.92 | 7.92 | 6.63 | 8.70 | 8.70 | 6.97 | 6.97 | 10 | 8.40 | 8.40 | – |
| CSCC[C@H](NC(=O)[C@H](CCCCN)NC(=O)[C@H](CC(C)C)NC(=O)[C@H](CO)NC(=O)[C@H](C)NC(=O)[C@H](CC(=O)O)NC(=O)[C@@H](NC(=O)[C@H](CC(C)C)NC(=O)[C@H](C)NC(=O)[C@H](Cc1ccc(O)cc1)NC(=O)[C@@H](N)CCCCN)C(C)C)C(=O)N[C@@H](C)C(=O)N[C@@H](CC(=O)O)C(=O)N1CCC[C@H]1C(=O)N[C@@H](CC(N)=O)C(=O)N[C@@H](CCCNC(=N)N)C(=O)N[C@@H](Cc1ccccc1)C(=O)N[C@@H](CCCNC(=N)N)C(=O)NCC(=O)N[C@@H](CCCCN)C(=O)N[C@@H](CC(=O)O)C(=O)N[C@@H](CC(C)C)C(=O)N1CCC[C@H]1C(=O)O [HSV 29] | 5.79 | 5.79 | 5.86 | 5.86 | 8.10 | < 4.00 | 6.05 | 4.61 | 6.92 | 6.92 | 7.09 | 7.09 | 4.28 | 5.91 | 5.91 | 4.76 | 4.76 | 3 | 5.28 | 5.28 | pIC50 ([4]; read-out: IC50, DR13, Class II MHC allele DR13): < 4.00 |

From patent US20080299140A1, “Immunogenic Composition and Peptide Sequences for Prevention and Treatment of an Hsv Condition” (priority 2002, published 2008)
